Measured values published in US8834843B2, “Imaging method” (GE Healthcare Limited, priority 2007, dated 2014).
Numbered stars: 1 amine (or outer) side, 2 acyl side, 3 side chain; on linkers, the order of the positions; unused ones are H or OH. Bridge positions count the residues as written; N and C are the ends. Side chains are listed from the residue outwards. Peptide text beside a SMILES is read from it. * marks the point of attachment. X1 = C/C(=N\O)C(C)(C)NCCC(CCNC(C)(C)/C(C)=N/O)CCN*; Glutaryl = O=C(CCCC(=O)[*:2])[*:1]; X2 = NC(=O)COCC(=O)NCCOCCOCCOCCN*

Experiments:
[1] = test system: Integrins on Stellate Cell Membranes; test: Binding to integrins on stellate cell membranes (125I-echistatin competition); design: species or system rat; conditions: cold compound vs 125I-echistatin, 37° C. for 60 min; read-out: Ki in the activated stellate cell membrane assay
Experimental: An activated rat liver stellate cell line (immortalized) was a kind gift from Professor Trond Berg at University of Oslo. The cells were grown in 150 mm culture flasks to confluence in Dulbeccos modified Eagels medium containing 10% FBS, glutamine and Penicillin/Streptomycin.
The cells were washed twice in ice cold PBS, pH 7.4, added 10 ml PBS and scraped off with a rubber policeman and transferred to a 50 ml vial on ice. Another 10 ml PBS were added to the flasks, scraped and combined with the first cells. The cells were centrifuged at 2000 rpm at 4° C. for 10 min. The supernatant was poured off and the pellet resuspended in 3 ml PBS. All pellets were combined into one tube, centrifuged as above and the final pellet frozen at −70° C. immediately.
The cell pellets were resuspended in ice-cold homogenization buffer (10 times the amount of cells, for example 2 g pellet to 20 ml homogenization buffer) containing 50 mM Tris-HCl, 5 mM MgCl2, 1 mM EGTA, pH7.4 and in addition protease inhibitors 10 ug/ml leupeptin, 10 ug/ml pepstatin, 200 ug/ml Bacitracin, 0.5 ug/ml aprotinin and 100 uM PMSF. […]
An experiment was set up in a 96-well plate. […] This filterspot was cut off and added a tube that finally was counted in a gamma-counter. […]

αv integrin = test: Liver uptake vs alpha-v integrin expression (ELISA) in BDL rat liver; assay type: in vivo; conditions: BDL animals
Experimental: The BDL and sham animal models were set up as described in Example 3. At each of 2, 15 and 28 days post-operatively, ˜3 MBq Compound 8 was administered to animals and the liver uptake assessed as described in Example 3.
The expression of αv integrin in the animals' livers was measured in homogenised livers of BDL- and sham-operated animals. At each of 2, 15 and 28 days post-operatively, animals were sacrificed and their livers removed and stored at −70° C.
Pre-weighed livers were removed from −70° C. freezer and placed into pre-cooled mortar and pestle in the presence of low amount of liquid nitrogen. Liver was crushed to almost a homogenous powder (during the crushing of the liver a small amount of liquid nitrogen was added to keep the tissue frozen at all times). […]
The homogenate was transferred into a pre-chilled glass tissue Dounce and three up and down strokes of the pestle were applied at 4° C. […] Relative protein concentration was determined in each sample using a commercial protein assay kit with BSA standards according to the manufacturer's instruction (Pierce, USA) (BSA aliquots should be made in modified RIPA buffer that was used for the homogenisation). Supernatant from each sample was further diluted between 1:50 and 1:200 in H2O and protein concentration was determined using a […] multi-well Plate reader (iEMS). […]

## C/C(=N\O)C(C)(C)NCCC(CCNC(=O)CCCC(=O)NCCCC[C@@H]1NC(=O)CSC[C@@H](C(=O)NCCOCCOCCOCCNC(=O)COCC(N)=O)NC(=O)[C@H](Cc2ccccc2)NC(=O)[C@@H]2CSSC[C@H](NC1=O)C(=O)N[C@@H](CCCNC(=N)N)C(=O)NCC(=O)N[C@@H](CC(=O)O)C(=O)N2)CCNC(C)(C)/C(C)=N/O (some centres unmarked) [Compound 8] ({CH2CO}-K([Glutaryl-X1])CRGDCFC-X2; disulfide 2-6; thioether N-8)
[1]
  Ki: 56 nM
αv integrin
  Correlation of αv integrin expression with liver uptake (in words): correlation
